Legend:
[1] = tested on: Huh7; assay: MTT antiproliferative assay, Huh7; format: cell-based; settings: Homo sapiens, Huh-7, 72 h, mean ± SD of three experiments, read-out: In vitro antiproliferative activity (IC50) Huh7
Method: (§1) Briefly, appropriate cells (1 × 10^4 cells/mL) were placed into 96-well plates in 100 μL of DMEM medium overnight. Then adding 100 μL of evaluated compounds into individual well for 72 h while 0.1% DMSO aqueous solution was treated as the negative control. After incubation with 30 μl MTT (5 mg/mL) for 4 h in all well, and ELISA plate reader measured absorbance of each well at 570 nm. Then calculating cytotoxicity effect of evaluated compounds through the formula: Cell inhibitory percentage (%) = (1−OD of treatment group/OD of control) × 100%.

[2] = tested on: Bel7402/5-FU; assay: MTT antiproliferative assay, Bel7402/5-FU; format: cell-based; settings: Homo sapiens, drug-resistant HCC cells, 72 h, mean ± SD of three experiments, read-out: In vitro antiproliferative activity (IC50) Bel7402/5-FU
Method: as §1

[3] = tested on: Bax, Bcl-2, caspase-3 in Bel7402/5-FU cells; assay: Western blotting of apoptosis-related proteins; format: cell-based, human; settings: 72 h
Method: (§2) The HDAC, autophagy and apoptosis-related proteins were analyzed according to Western blotting assay. […]. And anti-Ac-histone H3, anti-Ac-histone H4, anti-Ac-α-tubulin, anti-Bax, anti-Bcl2, anti-H2AX (S139ph), anti-CDK1, anti-cyclin B, and anti-β-actin antibodies (Cell Signaling Technology, MA, United States) detected the target proteins after membranes were blocked with 5% fat-free milk. The peroxidase-conjugated secondary antibodies detected the bound antibodies for 1 h and visualized according to improved chemiluminescent reagent.
[…]; (B) The relative expression levels of each protein (Bax, Bcl-2, pro-caspase-3, and cleaved caspase-3) were quantitatively analyzed using β-actin as reference. The data are presented as the mean ± SD of three separated assays. *p < 0.01 vs. control.

[4] = tested on: Bel7402/5-FU cells; assay: Cell apoptosis analysis by flow cytometry; format: cell-based, human; settings: 72 h
Method: Briefly, Bel7402/5-FU cells were cultured in DMEM at 37°C with 5% CO2 for 12 h. […] Then Bel7402/5-FU cells were collected and using APC-Annexin V and 7-AAD to stain these cells under the condition of 37°C for 15 min. Flow cytometry analysis (Calibur, BD, United States) decide the percentage of apoptotic cells according to APC signal (FL4) (excitation wavelength at 633 nm; emission wavelength at 660 nm) and 7-AAD staining signal (FL3) (excitation wavelength at 488 nm; emission wavelength at 647 nm). WinList 3D (7.1) analyzed the data and Excel 2016 plotted the histogram.
FIGURE 5 CHC causes apoptosis of Bel7402/5-FU cells. […] The data (mean ± SD, percentage of apoptotic cells) represent the average of three separate experiments. *p < 0.01 vs. control.

[5] = tested on: cyclin B and CDK1 in Bel7402/5-FU cells; assay: Western blotting of cyclin B and CDK1; format: cell-based, human; settings: 2.0 and 5.0 μM, 72 h, immunoblotting
Method: as §2
. Values (mean ± SD) were obtained from three separate experiments. *p < 0.01 vs. control.

[6] = tested on: H2AX (S139ph) in Bel7402/5-FU cells; assay: Western blotting of DNA damage marker H2AX; format: cell-based, human; settings: 72 h
Method: as §2
[…]; (B) The relative expression levels of H2AX protein were quantitatively analyzed using an internal reference β-actin, and the data (mean ± SD) were from three separate experiments. *p < 0.01 vs. control.

[7] = tested on: LO2 cells; assay: MTT assay on normal liver LO2 cells; format: cell-based, human; settings: increasing dosages, 72 h
Method: Human cancer cell lines (SMMC-7721, Bel7402, Huh7, HCT116), drug-resistant cell lines (Bel7402/5-FU), and human normal hepatocyte cells (LO2) were purchased from Institute of Cell Biology (Shanghai, China).
as §1, with “100%. GraphPadPrism (4.03) calculated data to afford Corresponding IC50 values.” for “100%.”
FIGURE 3 Inhibition potency of CHC against the proliferation on Bel7402, Bel7402/5-FU, and LO2 cells. Cells were treated with CHC at the indicated concentrations for 72 h. MTT assays were performed to evaluate cell proliferation. The inhibition (%) rate (mean ± SD) were from three separate experiments.

[8] = target: T1, recombinant human HDAC3 (Homo sapiens, UniProt O15379); assay: HDAC fluorimetric assay, HDAC3; format: biochemical; settings: mean ± SD of three experiments
T1 construct: purchased Enzo Life Sciences Inc
Method: The assay was conducted according to the HDAC1/3/6/8 assay kit (Enzo Life Sciences Inc.). Each different concentrations of evaluated compounds were, respectively, incubated with each HDAC1/3/6/8 at coupling of corresponding HDAC substrate (Boc-Lys (Ac)-AMC) at 37°C for 60 min. Then stopping the reaction under adding lysine developer.

[9] = tested on: Ac-histone H3, Ac-histone H4, Ac-α-tubulin in Bel7402/5-FU cells; assay: Western blotting of acetylated histone H3, H4 and α-tubulin; format: cell-based, human; settings: 2.0 and 5.0 μM, 72 h
Method: as §2
The data (mean ± SD) were obtained from three independent assays. *p < 0.01 vs. control.

T1 sequence (O15379 whole entry): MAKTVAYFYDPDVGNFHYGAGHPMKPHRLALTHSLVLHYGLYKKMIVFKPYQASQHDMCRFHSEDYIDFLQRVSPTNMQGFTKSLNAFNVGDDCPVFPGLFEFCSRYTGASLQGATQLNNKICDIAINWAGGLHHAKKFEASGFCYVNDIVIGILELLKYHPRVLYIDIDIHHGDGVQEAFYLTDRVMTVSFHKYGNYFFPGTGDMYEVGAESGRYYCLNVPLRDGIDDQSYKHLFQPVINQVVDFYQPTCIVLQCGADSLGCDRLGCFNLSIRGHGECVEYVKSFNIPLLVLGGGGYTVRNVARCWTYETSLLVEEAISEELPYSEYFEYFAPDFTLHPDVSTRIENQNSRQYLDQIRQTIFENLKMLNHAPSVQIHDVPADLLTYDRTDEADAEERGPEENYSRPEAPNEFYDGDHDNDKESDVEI
T1 sequence (O75376 395-489 partner limits assumed): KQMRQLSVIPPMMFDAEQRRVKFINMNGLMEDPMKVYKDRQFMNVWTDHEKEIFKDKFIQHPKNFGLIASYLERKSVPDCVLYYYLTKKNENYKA

## CN(C)c1ccc(-c2nc(C(=O)NCc3ccc(/C=C/C(=O)NO)cc3)cc3c2[nH]c2ccccc23)cc1 [CHC, (E)-N-(4-(3-(hydroxyamino)-3-oxoprop-1-en-1-yl)benzyl)-1-(4-dimethylaminophenyl)-9H-pyrido [3,4-b]indole-3-carboxamide]
[1]
  IC50: 2890 ± 320 nM
[2]
  IC50: 2170 ± 350 nM
[3]
  expression of Bax, Bcl-2 and cleavage of caspase-3: significantly upregulate the expression of Bax and cleavage of caspase-3 and downregulate the expression of Bcl-2
[4]; 2.0 μM
  rate of Annexin V+ Bel7402/5-FU cellular apoptosis: 42.3%
[4]; 5.0 μM
  rate of Annexin V+ Bel7402/5-FU cellular apoptosis: 67.2%
[5]
  expression of cyclin B and CDK1: downregulated the expression of cyclin B and CDK1
[6]
  expression of phosphorylated H2AX: induced the expression of phosphorylated H2AX in Bel7402/5-FU cells in a dosage-dependent manner
[7]
  cytotoxicity on normal liver LO2 cells growth: minimal cytotoxicity effects
[8]
  IC50: 134 ± 16 nM
[9]
  acetylation of H3, H4 and α-tubulin: promoted the acetylation of H3, H4, and α-tubulin with increasing dose

From article PMC7848139, “Novel Hybrid CHC from β-carboline and N-Hydroxyacrylamide Overcomes Drug-Resistant Hepatocellular Carcinoma by Promoting Apoptosis, DNA Damage, and Cell Cycle Arrest” (Frontiers in Pharmacology, 2021)
